Assay results published in ChEMBL document CHEMBL1201862, “PubChem BioAssay data set” (2004).
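Cells were grown in 96-well plates and exposed to each compound for 48 hours at five concentrations; endpoints were interpolated linearly between bracketing concentrations, or set to the highest concentration if not reached. The concentration for 50% growth inhibition is given as GI50.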 Activity calls are given as the source filed them. No stated cut-off is given here; in the data, active = GI50 up to about 1.1 µM and inactive = higher.

Columns and labels:
Experiment in all cases: NCI anticancer screen, dose series, 48 h
LOX IMVI = system: LOX IMVI
M14 = system: M14
U-251 = system: U-251
SK-MEL-5 = system: SK-MEL-5
Malme-3M = system: Malme-3M
SF-539 = system: SF-539
NCI-H23 = system: NCI-H23
CCRF-CEM = system: CCRF-CEM
A549 = system: A549
SNB-75 = system: SNB-75
COLO 205 = system: COLO 205
EKVX = system: EKVX
SF-268 = system: SF-268
HOP-62 = system: HOP-62
NCI-H460 = system: NCI-H460
SK-MEL-28 = system: SK-MEL-28
RXF 393 = system: RXF 393
A498 = system: A498

Measured: GI50

CCC12CCC(O)C1N(C)CCC2Sc1ccccc1 (stereo not given)
inactive: LOX IMVI > 100 µM | M14 > 100 µM | U-251 78.2 µM | SK-MEL-5 33 µM | Malme-3M 35.2 µM | SF-539 > 100 µM | NCI-H23 > 100 µM | CCRF-CEM 77.4 µM | A549 > 100 µM | SNB-75 24.8 µM | COLO 205 80 µM | EKVX > 100 µM | SF-268 75.5 µM | HOP-62 > 100 µM | NCI-H460 > 100 µM | SK-MEL-28 75.3 µM | RXF 393 > 100 µM | A498 > 100 µM

O=C1c2ccccc2C(=O)c2nc3c(O)cccc3cc21
inactive: LOX IMVI 13.9 µM | M14 6.34 µM | U-251 20.8 µM | SK-MEL-5 3.6 µM | Malme-3M 53.5 µM | SF-539 28.4 µM | NCI-H23 > 100 µM | A549 17.8 µM | SNB-75 68.1 µM | COLO 205 23.8 µM | EKVX 14.5 µM | SF-268 7.96 µM | HOP-62 38.9 µM | NCI-H460 9.08 µM | SK-MEL-28 > 100 µM | RXF 393 > 100 µM | A498 25.9 µM

NCCCCNCCCNC(=O)c1nc(-c2csc(CCN)n2)sc1Cl
inactive: M14 > 100 µM | U-251 > 100 µM | SK-MEL-5 > 100 µM | Malme-3M > 100 µM | SF-539 > 100 µM | NCI-H23 > 100 µM | CCRF-CEM > 100 µM | A549 > 100 µM | SNB-75 > 100 µM | COLO 205 > 100 µM | EKVX > 100 µM | SF-268 62.7 µM | HOP-62 > 100 µM | NCI-H460 > 100 µM | SK-MEL-28 > 100 µM | RXF 393 > 100 µM | A498 > 100 µM

COC(=O)c1cc(CC(C)C)c2c(c1)[nH]c1ccccc12
inactive: LOX IMVI > 100 µM | M14 > 100 µM | U-251 > 100 µM | SK-MEL-5 78.7 µM | Malme-3M > 100 µM | SF-539 > 100 µM | NCI-H23 49 µM | CCRF-CEM > 100 µM | A549 > 100 µM | SNB-75 18.2 µM | COLO 205 > 100 µM | EKVX > 100 µM | SF-268 > 100 µM | NCI-H460 > 100 µM | SK-MEL-28 > 100 µM | A498 > 100 µM

O=C1C(Cl)=C(Cl)C(=O)N1C1C2CC3CC(C2)CC1C3 (stereo not given)
inactive: LOX IMVI > 100 µM | M14 > 100 µM | U-251 > 100 µM | SK-MEL-5 > 100 µM | Malme-3M > 100 µM | SF-539 > 100 µM | NCI-H23 > 100 µM | CCRF-CEM 19.3 µM | A549 > 100 µM | SNB-75 > 100 µM | COLO 205 32.8 µM | EKVX > 100 µM | SF-268 > 100 µM | HOP-62 > 100 µM | NCI-H460 > 100 µM | SK-MEL-28 > 100 µM | RXF 393 94.6 µM | A498 > 100 µM

CC/C(SC)=[N+](\C)[O-]
inactive: LOX IMVI > 41.3 µM | M14 > 100 µM | U-251 > 100 µM | SK-MEL-5 > 100 µM | Malme-3M > 100 µM | SF-539 > 100 µM | NCI-H23 > 100 µM | CCRF-CEM 15.5 µM | A549 > 100 µM | SNB-75 > 67.9 µM | COLO 205 > 44.8 µM | EKVX > 100 µM | SF-268 > 100 µM | HOP-62 > 100 µM | NCI-H460 > 100 µM | SK-MEL-28 > 100 µM | RXF 393 > 100 µM | A498 > 100 µM

O=C(O)C1c2ccccc2C(C(=O)O)c2ccccc21 (stereo not given)
inactive: LOX IMVI > 100 µM | M14 > 100 µM | U-251 > 100 µM | SK-MEL-5 > 100 µM | Malme-3M > 100 µM | SF-539 > 100 µM | CCRF-CEM > 100 µM | A549 > 100 µM | SNB-75 > 100 µM | COLO 205 > 100 µM | SF-268 > 100 µM | HOP-62 > 100 µM | NCI-H460 > 100 µM | RXF 393 > 100 µM | A498 > 100 µM

CC1=NOC(=O)/C1=C/c1ccc([N+](=O)[O-])cc1
inactive: LOX IMVI > 100 µM | M14 > 100 µM | U-251 > 100 µM | SK-MEL-5 > 100 µM | Malme-3M > 100 µM | SF-539 > 100 µM | NCI-H23 > 100 µM | CCRF-CEM > 100 µM | A549 > 100 µM | SNB-75 > 100 µM | COLO 205 > 100 µM | EKVX > 100 µM | SF-268 > 100 µM | HOP-62 > 100 µM | NCI-H460 > 100 µM | SK-MEL-28 > 100 µM | RXF 393 > 100 µM | A498 > 100 µM

CNc1ccc2ncccc2c1[N+](=O)[O-]
inactive: LOX IMVI > 100 µM | M14 > 100 µM | SK-MEL-5 > 100 µM | Malme-3M > 100 µM | SF-539 > 100 µM | NCI-H23 > 100 µM | CCRF-CEM > 100 µM | A549 > 100 µM | SNB-75 > 100 µM | EKVX > 100 µM | SF-268 > 100 µM | HOP-62 > 100 µM | NCI-H460 > 100 µM | SK-MEL-28 > 100 µM | RXF 393 > 100 µM | A498 > 100 µM

CC1=C(O)C(=O)c2cn(C)cc2C1=O
inactive: LOX IMVI > 100 µM | M14 > 100 µM | U-251 > 100 µM | SK-MEL-5 > 100 µM | Malme-3M > 100 µM | SF-539 > 100 µM | NCI-H23 > 100 µM | CCRF-CEM > 100 µM | A549 > 100 µM | SNB-75 > 100 µM | COLO 205 > 100 µM | EKVX > 100 µM | SF-268 > 100 µM | HOP-62 > 100 µM | NCI-H460 > 100 µM | SK-MEL-28 > 100 µM | RXF 393 > 100 µM | A498 > 100 µM

O=C1C2C3C=CC(C2C(=O)N1CO)C1C2C(=O)N(CO)C(=O)C2C31 (stereo not given)
inactive: LOX IMVI > 45 µM | M14 > 100 µM | U-251 > 67.1 µM | SK-MEL-5 > 83 µM | Malme-3M > 100 µM | SF-539 > 61 µM | NCI-H23 > 100 µM | CCRF-CEM 23.6 µM | A549 > 54.2 µM | SNB-75 70.8 µM | COLO 205 > 48.2 µM | EKVX > 100 µM | SF-268 > 50.4 µM | HOP-62 > 100 µM | NCI-H460 27.9 µM | SK-MEL-28 > 84.1 µM | RXF 393 > 81.7 µM | A498 > 100 µM

Cc1ccc(C2C(Cl)C(=O)N2NC(=O)c2ccc(N)cc2)cc1 (stereo not given)
inactive: LOX IMVI 11.2 µM | M14 18.7 µM | U-251 14.6 µM | SK-MEL-5 15.2 µM | Malme-3M 17.1 µM | SF-539 23.9 µM | NCI-H23 16 µM | CCRF-CEM 7.73 µM | A549 27.7 µM | SNB-75 47.6 µM | COLO 205 22.6 µM | EKVX 28.8 µM | HOP-62 22.4 µM | NCI-H460 17.6 µM | SK-MEL-28 12.4 µM | A498 22.5 µM

COC(=O)C1=C(C[S+]([O-])c2ccccc2[N+](=O)[O-])ON(C)C1c1ccccc1 (stereo not given)
inactive: LOX IMVI 13.3 µM | M14 94 µM | U-251 34.4 µM | SK-MEL-5 38.8 µM | Malme-3M > 100 µM | SF-539 27.3 µM | NCI-H23 > 100 µM | CCRF-CEM 10.5 µM | A549 47.2 µM | SNB-75 24.8 µM | COLO 205 43.7 µM | EKVX 55.6 µM | SF-268 27.5 µM | HOP-62 > 100 µM | NCI-H460 > 100 µM | RXF 393 25.4 µM | A498 > 100 µM

[O-]/N=[N+](/[O-])C1CCCCC1=[N+]1CCOCC1 (stereo not given)
inactive: M14 > 100 µM | U-251 > 100 µM | Malme-3M > 100 µM | NCI-H23 > 100 µM | CCRF-CEM > 100 µM | A549 > 100 µM | COLO 205 > 100 µM | EKVX > 100 µM | SF-268 > 100 µM | HOP-62 > 100 µM | NCI-H460 > 100 µM | SK-MEL-28 > 100 µM | A498 > 100 µM

CC(=O)c1sc(Nc2nnc(-c3ccc(-c4nnc(Nc5nc(C)c(C(C)=O)s5)o4)cc3)o2)nc1C
inactive: LOX IMVI > 100 µM | M14 > 100 µM | U-251 > 100 µM | Malme-3M > 100 µM | NCI-H23 > 100 µM | CCRF-CEM > 100 µM | A549 > 10 µM | COLO 205 > 100 µM | EKVX > 100 µM | SF-268 > 100 µM | HOP-62 > 100 µM | NCI-H460 > 100 µM | SK-MEL-28 > 100 µM | RXF 393 > 100 µM | A498 > 100 µM

C1=C(c2ccccc2)SC(N2CCCCC2)S1 (stereo not given)
inactive: LOX IMVI 72.9 µM | M14 > 100 µM | U-251 > 100 µM | Malme-3M 88.7 µM | SF-539 > 100 µM | NCI-H23 > 100 µM | CCRF-CEM 95.5 µM | SNB-75 55.6 µM | COLO 205 > 100 µM | EKVX 86.7 µM | SF-268 > 100 µM | HOP-62 > 100 µM | NCI-H460 > 100 µM | RXF 393 > 100 µM | A498 > 100 µM

C[n+]1c2ccccc2c(NC(CCCNC(=N)N)C(=O)O)c2ccccc21 (stereo not given)
inactive: M14 > 100 µM | U-251 > 100 µM | SK-MEL-5 85.9 µM | Malme-3M > 100 µM | SF-539 > 100 µM | NCI-H23 > 100 µM | A549 > 100 µM | SNB-75 > 100 µM | COLO 205 > 100 µM | EKVX > 100 µM | SF-268 > 100 µM | HOP-62 > 100 µM | NCI-H460 > 100 µM | RXF 393 > 100 µM | A498 > 100 µM
